No end group written: not given here.
Assays:
[1] = test system: A. baumannii laboratory strains (ATCC strains 17,978 and 19,606); assay type: cell-based, Acinetobacter baumannii; details: disc diffusion; activity = inhibition zone diameter ≥ 10 mm
Description: The antimicrobial activities of 58 AMPs were screened against A. baumannii laboratory strains (ATCC strains 17,978 and 19,606) in vitro using a disc diffusion assay (Supplementary Table 1).
The antimicrobial activity against Acinetobacter baumannii were determined by a inhibition zone
assay, performed as previous described1. The AMPs with an inhibition zone diameter ≥ 10 mm were
determined as the AMPs with antimicrobial activity.

LD50 (preliminary data) = assay type: in vivo; details: intratracheal administration

Sequence	antimicrobial activity against Acinetobacter baumannii (inhibition zone assay) [1]	LD50 (LD50 (preliminary data)) [mg/kg]
GLLRKGGEKIGEKLKKIGQKIKNFFQKLVPQPEQ [CRAMP, antimicrobial peptide]	without antimicrobial activity (The antimicrobial peptides without antimicrobial activity)	–
FIHHIIGGLFSAGKAIHRLIRRRRR [TP4]	–	10 to 20
AKKVFKRLGIGAVLKVLTTG [HPME, antimicrobial peptide]	without antimicrobial activity (The antimicrobial peptides without antimicrobial activity)	–

Reference: article PMC8016998, “Identification of potential therapeutic antimicrobial peptides against Acinetobacter baumannii in a mouse model of pneumonia” (Scientific Reports, 2021)
